Results published in patent US12246022B2, “Compositions and methods for treating, preventing or reversing age associated inflammation and disorders” (BROWN UNIVERSITY, priority 2019, dated 2025).
“And” between values parts separate entries of the source, which are not always exact repeats. Identical values can stand only once. Like-named read-outs stand apart in the source and are kept apart here.

Columns and labels:
[1] = Table 13 Comparative Studies; cited from earlier work
human LINE-1 = assay: Human LINE-1 retrotransposition assay (dual luciferase pYX017 reporter, HeLa cells, Table 11); type: cell-based
Method: Assays were performed as described in Xie et al., 2011^151 with several modifications. The reporter assay was performed in 96 well white Optical bottom plates. 6000 HeLa cells were seeded in each well 24 hours prior transfection and compound treatment. All compounds were resuspended in DMSO. Stock solution concentrations varied from 50 mM to 1.25 mM depending of the solubility of the compound. Serial dilutions (1:3) were prepared in DMSO. Ten different concentrations of each compound were tested in triplicate. Medium containing different concentrations of the compounds were prepared by adding 2 μL of the compound dilution to 1 mL of the culture medium. The final concentration of DMSO in the medium was 0.2%. FuGENE® HD transfection reagent (Promega) was used to transfect the plasmid pYX016 into the cells. The transfection mix was prepared in OpiMEM (Thermo Fisher) using a reagent to DNA ratio of 3.5:1 according to manufacturer's instructions. Culture medium was removed from the cells and discarded. The transfection mix (5 μL) was mixed with the compound containing medium (100 μL/well) and this was added onto the cells of each well. Cells were incubated for 48H at 37° C./5% CO2. Luciferase reporter activity was quantified with the Dual-Luciferase® Reporter Assay System (Promega) according to manufacturer's instructions for multiwell plates with the following modification: Cells were lysed directly on the multiwell plate with 30 μL of the passive lysis buffer (PLB) for 20 min at room temperature, with gentle shaking to ensure complete cell lysis (instead of 20 μL of PLB for 15 min). Firefly and Renilla luciferase signals were measured using a SpectraMax i3x Multi-Mode Microplate Reader. […] Relative L1 activity was calculated as Firefly/Renilla *10,000. […] The experiment was performed twice, independently. […] Because the human construct yields a lower signal, compounds were incubated with cells for 72 hours instead of 48 hours, and cells were seeded at a density of 2000/well instead of 6000/well. In addition, the transfection reagent to DNA ratio was 2:1 instead of 3.5:1.

[2] = system: L1, p16, IFN-I and SASP gene expression; assay: RT-qPCR of L1, p16, IFN-I and SASP genes in mouse tissues after drug in drinking water; type: in vivo; conditions: for IFNA Individual Foldchanges / IL6 Individual Foldchanges / IRF7 Individual Foldchanges / L1 Individual Foldchanges / MMP3 Individual Foldchanges / OAS1 Individual Foldchanges / PAI Individual Foldchanges / p16 Individual Foldchanges: one animal per line, listed as 3TC; for IFNA Age-group Foldchanges / IL6 Age-group Foldchanges / IRF7 Age-group Foldchanges / L1 Age-group Foldchanges / MMP3 Age-group Foldchanges / OAS1 Age-group Foldchanges / PAI Age-group Foldchanges / p16 Age-group Foldchanges: relative to 05 mo-WT
Method: C57BL/6J mice of both sexes were obtained from the NIA Aged Rodent Colonies^61 at 5 and 18 months of age. The 5-month old animals were sacrificed after a short (1 week) acclimatization period, a variety of tissues were harvested, snap frozen in LN2 and stored at −80° C. The 18-month old animals were housed until they reached a desired age. Mice were housed in a specific pathogen-free AAALAC-certified barrier facility. Cages, bedding (Sani-chip hardwood bedding) and food (Purina Lab Chow 5010) were sterilized by autoclaving. Food and water (also sterilized) were provided ad libitum. A light-dark cycle of 12 hours was used (7 AM On, 7 PM Off). Temperature was maintained at 70° F., and humidity at 50%. All animals were observed daily and weighed once per week. In a pilot experiment, three cohorts of 10 animals each were treated with 3TC dissolved in drinking water (1.5 mg/ml, 2.0 mg/ml, 2.5 mg/ml) continuously from 18 months until sacrifice at 24 months. The fourth (control) cohort was provided with the same water without drug. […] Once during the experiment (at 20 months of age) the animals were subjected to a single tail bleed of approximately 70 μL. […] They were then assigned randomly to two cohorts by a technician that was blinded to the appearance or other characteristics of the animals. One cohort was treated for 2 weeks with 2 mg/mL of 3TC in drinking water, and the other (control) cohort with same water without drug, administered in the same manner. At the end of the treatment period all animals were sacrificed and harvested for tissues as described above. All the animals in both cohorts were all included in all subsequent analyses. The experiment was performed on separate occasions with male and female animals.
Reverse transcription qPCR (RT-qPCR) of RNA was performed using the SYBR Green system (Applied Biosystems). Polyadenylated RNA was used in all experiments assessing transcription of L1 elements, and total RNA was used for all other genes. Total RNA was harvested using the Trizol reagent (Invitrogen). Poly(A) RNA was isolated from total RNA using the NEBNext Poly(A) mRNA Magnetic Isolation Module (New England Biolabs). 1 μg of total RNA, or 10 ng of poly(A) RNA, were reverse-transcribed into cDNA in 50 μL reactions using the TaqMan kit (Applied Biosystems). To assess strand-specific transcription, the random primers in the RT reaction were substituted with a strand-specific primer to the target RNA. 1 μL of each RT reaction was used in subsequent qPCR reactions. […] The arithmetic mean of Gapdh and two additional controls (Hsp90 and GusB) was used for normalization of RT-qPCR experiments with murine tissues, with the exception of liver that was normalized to Hsp90 and GusB. For measuring L1 transcription, poly(A) RNA samples were exhaustively digested with RNase-free DNase (Qiagen) prior to the synthesis of cDNA6. Effectiveness of the DNase digestion was assessed using controls that omitted the RT enzyme.

[3] = 3TC concentration in mouse plasma; type: in vivo; conditions: both sexes, C57BL/6J, oral, mice, 2 mg/mL in drinking water cohort, tail bleed at 20 months of age
Method: C57BL/6J mice of both sexes were obtained from the NIA Aged Rodent Colonies^61 at 5 and 18 months of age. The 5-month old animals were sacrificed after a short (1 week) acclimatization period, a variety of tissues were harvested, snap frozen in LN2 and stored at −80° C. The 18-month old animals were housed until they reached a desired age. Mice were housed in a specific pathogen-free AAALAC-certified barrier facility. Cages, bedding (Sani-chip hardwood bedding) and food (Purina Lab Chow 5010) were sterilized by autoclaving. Food and water (also sterilized) were provided ad libitum. A light-dark cycle of 12 hours was used (7 AM On, 7 PM Off). Temperature was maintained at 70° F., and humidity at 50%. All animals were observed daily and weighed once per week. In a pilot experiment, three cohorts of 10 animals each were treated with 3TC dissolved in drinking water (1.5 mg/ml, 2.0 mg/ml, 2.5 mg/ml) continuously from 18 months until sacrifice at 24 months. The fourth (control) cohort was provided with the same water without drug. […] Once during the experiment (at 20 months of age) the animals were subjected to a single tail bleed of approximately 70 μL. The collected plasma was shipped to the University of North Carolina CFAR Clinical Pharmacology and Analytical Chemistry Core for analysis of 3TC. For the 2 mg/mL cohort the concentration of 3TC in plasma averaged 7.2 μM. […]

[4] = 300 mg per day; cited from earlier work

## Nc1nc(=O)n([C@@H]2CS[C@H](CO)O2)cc1F [Emtricitabine]
[1]
  huCSF/Plasma: 0.35

## Nc1ccn([C@@H]2CS[C@H](CO)O2)c(=O)n1 [Lamivudine]
Human LINE-1; pYX017, 72 H post-transfection, read-out: Human L1 activity inhibition IC50, Exp. 1
  IC50: 793 nM
Human LINE-1; pYX017, 72 H post-transfection, read-out: Human L1 activity inhibition IC50, Exp. 2
  IC50: 867 nM
Human LINE-1; pYX017, 72 H, n = 2, read-out: Human L1 activity inhibition IC50, Average
  IC50: 830 nM
Human LINE-1; read-out: human L1 inhibition IC50
  IC50: > 800 nM
[2]; 05 mo mice + 3TC
  IFNA Individual Foldchanges: 1.821 and 2.748 and 2.909 and 0.645 and 0.465 and 0.346
  IL6 Individual Foldchanges: 1.455 and 0.924 and 5.604 and 1.622 and 1.920 and 0.751
  IRF7 Individual Foldchanges: 1.040 and 1.153 and 1.132 and 0.684 and 0.565 and 0.960
  L1 Individual Foldchanges: 1.458 and 1.464 and 0.484 and 1.829 and 2.537 and 0.747
  MMP3 Individual Foldchanges: 1.587 and 0.601 and 1.946 and 0.711 and 0.635 and 0.476
  OAS1 Individual Foldchanges: 2.867 and 1.521 and 6.031 and 1.317 and 0.037 and 1.603
  PAI Individual Foldchanges: 2.291 and 0.842 and 2.212 and 1.683 and 0.180 and 0.380
  p16 Individual Foldchanges: 2.881 and 0.457 and 0.957 and 0.270 and 0.104 and 0.541
  IFNA Age-group Foldchanges: 1.489
  IL6 Age-group Foldchanges: 2.046
  IRF7 Age-group Foldchanges: 0.922
  L1 Age-group Foldchanges: 1.420
  MMP3 Age-group Foldchanges: 0.993
  OAS1 Age-group Foldchanges: 2.229
  PAI Age-group Foldchanges: 1.265
  p16 Age-group Foldchanges: 0.868
[2]; 26 mo mice + 3TC
  IFNA Individual Foldchanges: 10.115 and 2.941 and 4.156 and 1.283 and 1.601 and 8.335 and 19.836 and 3.982 and 6.531 and 8.332 and 5.514 and 6.321
  IL6 Individual Foldchanges: 1.116 and 1.553 and 2.194 and 0.686 and 1.395 and 1.291 and 8.067 and 0.654 and 2.119 and 3.177 and 1.148 and 4.866
  IRF7 Individual Foldchanges: 0.540 and 0.506 and 0.498 and 0.424 and 0.954 and 3.302 and 0.993 and 1.155 and 0.950 and 1.866
  L1 Individual Foldchanges: 2.819 and 2.160 and 2.053 and 1.491 and 6.524 and 2.863 and 7.191 and 5.433 and 3.817 and 4.409 and 5.864 and 2.745
  MMP3 Individual Foldchanges: 1.044 and 0.972 and 1.618 and 1.650 and 1.033 and 1.166 and 4.484 and 0.374 and 1.543 and 3.656 and 1.964 and 1.637
  OAS1 Individual Foldchanges: 1.658 and 0.643 and 0.055 and 0.482 and 1.094 and 0.695 and 7.091 and 3.841 and 1.945 and 0.636 and 0.565 and 1.469
  PAI Individual Foldchanges: 1.034 and 1.056 and 2.696 and 0.493 and 1.562 and 1.675 and 2.347 and 0.529 and 0.747 and 8.508 and 6.112 and 7.313
  p16 Individual Foldchanges: 2.290 and 3.653 and 1.731 and 1.168 and 0.844 and 1.243 and 3.690 and 2.458 and 2.135 and 4.053 and 1.969 and 1.326
  IFNA Age-group Foldchanges: 6.579
  IL6 Age-group Foldchanges: 2.355
  IRF7 Age-group Foldchanges: 1.076
  L1 Age-group Foldchanges: 3.947
  MMP3 Age-group Foldchanges: 1.762
  OAS1 Age-group Foldchanges: 1.681
  PAI Age-group Foldchanges: 2.839
  p16 Age-group Foldchanges: 2.213
[3]
  concentration at 2 months of continuous dosing (sampled at 20 months of age): 7.2 µM
[4]
  3TC in plasma at human HIV therapeutic dose: 5 to 8 µM
